From paper PMC10419416, “Fighting Pseudomonas aeruginosa Infections: Antibacterial and Antibiofilm Activity of D-Q53 CecB, a Synthetic Analog of a Silkworm Natural Cecropin B Variant” (International Journal of Molecular Sciences, 2023)
Non-standard residues stand in square brackets, D forms with d. Residues, ends and D or L forms follow the SMILES beside them. No end group written: not given here.

How the values were obtained:
Type in all cases: cell-based, Pseudomonas aeruginosa
P. aeruginosa ATCC 27853 = assay: CFU assay of medium over treated 24 h old biofilm; settings: for mean CFUs/mL decrement vs untreated control: 1 MIC, 1 h; for living bacterial cells in the medium, Mean ± SEM: 1 h treatment of 24 h-old biofilm with 1 MIC (2.2 μM), four experiments, control 3.06 ± 2.07 × 10^14
[1] = system: P. aeruginosa biofilms (ATCC 25668); assay: Confocal microscopy of pre-formed biofilm, thickness; settings: 1 h treatment with 1 MIC (2.2 μM) of 24 h old biofilm; 6-8 confocal fields
Description: Bacteria cells (1 × 10^6 cells/mL) were grown in Permanox four-wells chamber slide systems (1.8 cm^2/well; Nunc® Lab-Tek® Chamber SlideTM system) at 37 °C for 24 h without agitation to allow biofilm formation. […] Negative controls, treated with LB only, were followed in parallel. […] After each staining, samples were washed twice with PBS. After washing, samples were fixed in 4% Paraformaldehyde, mounted in VECTASHIELD® mounting medium (Vector Laboratories, Newark, CA, USA), and observed using a Zeyss LSM 900 Airyscan 2 confocal microscope and a ×63 oil immersion objective. Optical sections (Z-series) were taken at 0.2 μm intervals. Experiments were performed four times (one-two replicates per condition). […] EPS was visualized using a 405 nm wavelength for excitation and 413-480 nm for emission (blue); to detect proteins or Propidium Iodide (red), a 543 nm wavelength for excitation and 590-610 nm for emission were used. Post-acquisition analyses were performed with Fiji (http://fiji.sc/wiki/index.php, downloaded on 4 April 2022). Cross-section views (x-z and y-z planes were obtained with the “Orthogonal View” plugin. To evaluate live and dead cells, images of single 0.13 μm slices taken in the upper part of the biofilm (i.e., in contact with the peptide during treatment) were processed using the “Counting Objects” plugin, and the same threshold level for red and green colors.

[2] = system: P. aeruginosa ATCC 25668, mucoid strain; assay: Degradation of pre-formed 24 h old biofilm, crystal violet; settings: for mean decrement in biomass of pre-formed biofilm: 1 h treatment of 24 h old biofilm
Description: (§1) One hundred μL of bacteria (1 × 10^6 cells/mL), derived from a fresh ON culture, were seeded in a sterile non-treated polystyrene 96-well plate (Corning) and incubated for 24 h at 37 °C without agitation. […] Evaluation of biofilm biomass was performed using a crystal violet assay as described above (Section 4.8). Experiments were performed two-four times.

[3] = system: P. aeruginosa ATCC 27853, non-mucoid strain; assay: as above; settings: for mean decrement in biomass of pre-formed biofilm: 1 h treatment of 24 h old biofilm
Description: as §1

[4] = system: P. aeruginosa ATCC 25668 strain; assay: Motility assay (swimming, swarming, twitching); settings: 1/2 MIC L-Q53 CecB or 1/4 MIC D-Q53 CecB; for effect on swimming motility: 0.3% agar LB plates; for effect on swarming motility: 0.5% agar LB plates; for effect on twitching motility (bacterial growth area): 1% agar LB plates
Description: The motility assay was performed as in [36], with minor modifications. […] Inocula were performed with a sterile toothpick (i) within the medium to detect swimming, (ii) on the top of the medium to detect swarming, and (iii) on the bottom of the plate to detect twitching. Bacteria grown and plated in the absence of any peptide were processed as negative controls. Plates were incubated at 30 °C (for swimming and swarming) or 37 °C (for twitching) and monitored for 24–48 h. Plate images were taken with a digital camera. Post-acquisition analyses were performed with Fiji, an open-source image-processing package based on ImageJ (http://fiji.sc/wiki/index.php, downloaded on 4 April 2022). Swimming, swarming, and twitching data were obtained by calculating the area of the growing zone over the total area of each plate. Values were expressed as percentages. Each type of motility was evaluated in at least four independent experiments, each with one replica per condition.

[5] = system: P. aeruginosa ATCC 25668 strain; assay: EPS determination, phenol-sulfuric acid method; settings: 20 h incubation; 1/2 MIC L-Q53 CecB or 1/4 MIC D-Q53 CecB; OD490
Description: Experiments were performed in LB medium supplemented 2% glucose to enhance the EPS production, as in [46]. Five mL of bacterial cultures (1 × 10^6 cells/mL) were added to the same volume of the peptide at a dilution not-inhibiting the bacterial growth (final concentrations 1.1 and 0.55 µM for L- and D-Q53 CecB, respectively, as in Section 4.11) and incubated at 37 °C for 20 h with agitation (200 rpm). 10 mL of bacterial culture (5 × 10^5 cells/mL) without any peptide were grown in parallel. Samples were incubated at 37 °C for 20 h with agitation. Glucan levels were determined as in [46, 75] with some modifications. For each sample, 5 mL were centrifuged at 5000× g for 10 min, and supernatants were collected in clean tubes; pellets were washed twice in 2.5 mL autoclaved water and centrifuged at 5000× g for 10 min, collecting supernatants again. Three volumes of chilled absolute ethanol were added to the collected supernatants and placed at 4 °C ON to precipitate polysaccharides. After centrifugation at 10,000× g for 10 min, pellets were washed with chilled ethanol 70% and resuspended in 5 mL 0.1 M NaOH. Two mL of 5% aqueous solution of phenol and 5 mL of concentrated sulphuric acid were added. Mixtures were incubated 10 min at RT in the dark, vortexed 30 sec, placed in a water bath at 25 °C 20 min and read at 490 nm. The experiment was performed four times, each condition in duplicate.

CC[C@@H](C)[C@@H](NC(=O)[C@@H](C)NC(=O)[C@@H](CCCCN)NC(=O)[C@@H](C)NC(=O)[C@@H](CO)NC(=O)CNC(=O)[C@@H](CC(C)C)NC(=O)[C@H](NC(=O)[C@@H](CCC(N)=O)NC(=O)[C@H](NC(=O)[C@@H](C)NC(=O)[C@H]1CCCN1C(=O)CNC(=O)[C@@H](C)NC(=O)[C@@H](CCCCN)NC(=O)[C@H](NC(=O)[C@H](NC(=O)CNC(=O)[C@@H](CC(=O)O)NC(=O)[C@@H](CCCNC(=N)N)NC(=O)[C@H](NC(=O)[C@@H](CC(N)=O)NC(=O)[C@@H](CCCNC(=N)N)NC(=O)CNC(=O)[C@@H](CCSC)NC(=O)[C@@H](CCCCN)NC(=O)[C@@H](CCC(=O)O)NC(=O)[C@H](NC(=O)[C@@H](CCCCN)NC(=O)[C@@H](CCCCN)NC(=O)[C@@H](Cc1ccccc1)NC(=O)[C@H](NC(=O)[C@@H](CCCCN)NC(=O)[C@@H](Cc1c[nH]c2ccccc12)NC(=O)[C@H](N)CCCNC(=N)N)[C@H](C)CC)[C@H](C)CC)[C@H](C)CC)[C@H](C)CC)C(C)C)[C@H](C)CC)C(C)C)C(N)=O [D-Q53 CecB] (H-[dR][dW][dK][dI][dF][dK][dK][dI][dE][dK][dM]G[dR][dN][dI][dR][dD]G[dI][dV][dK][dA]G[dP][dA][dI][dQ][dV][dL]G[dS][dA][dK][dA][dI]-NH2; N-terminus and C-terminus assumed)
mean CFUs/mL decrement vs untreated control (P. aeruginosa ATCC 27853): 4 orders of magnitude
living bacterial cells in the medium, Mean ± SEM (P. aeruginosa ATCC 27853): 1.07 ± 1.06 × 10^10 CFUs/mL
reduction in biofilm thickness vs untreated controls [1]: ~ 77%
mean decrement in biomass of pre-formed biofilm ([2]; 1/2 MIC (1.1 μM)): 38%
reduction of pre-formed biofilm ([2]; 1/4 MIC (0.55 μM), 1 h): lost its ability to reduce pre-formed biofilms
mean decrement in biomass of pre-formed biofilm ([2]; 8 MIC (17.6 μM)): 52%
mean decrement in biomass of pre-formed biofilm ([3]; 1/2 MIC (1.1 μM)): 49%
reduction of pre-formed biofilm ([3]; 1/4 MIC (0.55 μM), 1 h): lost its ability to reduce pre-formed biofilms
mean decrement in biomass of pre-formed biofilm ([3]; 8 MIC (17.6 μM)): 64%
effect on swimming motility [4]: not able to affect
effect on swarming motility [4]: not able to affect
effect on twitching motility (bacterial growth area) [4]: significant reductions
effect on water-soluble EPS production [5]: significantly reduce

RWKIFKKIEKMGRNIRDGIVKAGPAIQVLGSAKAI-NH2 [L-Q53 CecB]
mean CFUs/mL decrement vs untreated control (P. aeruginosa ATCC 27853): 6 orders of magnitude
living bacterial cells in the medium, Mean ± SEM (P. aeruginosa ATCC 27853): 7.03 ± 4.10 × 10^8 CFUs/mL
reduction in biofilm thickness vs untreated controls [1]: did not significantly reduce biofilm thickness
reduction of pre-formed biofilm biomass ([2]; 4 MIC, 1 h, single sample): significant biofilm biomass decrements
reduction of pre-formed biofilm biomass at all tested concentrations ([2]; 1 h, L-Q53 CecB 1/2 to 8 MIC (except 4 MIC), tobramycin 1 to 8 MIC): did not significantly reduce biofilm biomass
reduction of pre-formed biofilm biomass at all tested concentrations ([3]; 1 h, L-Q53 CecB 1/2 to 8 MIC, tobramycin 1 to 8 MIC): did not significantly reduce biofilm biomass
effect on swimming motility [4]: not able to affect
effect on swarming motility [4]: not able to affect
effect on twitching motility (bacterial growth area) [4]: no effect
effect on water-soluble EPS production [5]: did not show any significant effect
